Test results: ChEMBL document CHEMBL1124936, “Synthesis and antifolate properties of 9-alkyl-10-deazaminopterins” (J Med Chem, 1990)
pIC50, pKi: −log10 of the molar value.

Legend:
[1] = tested on: L1210; experiment: Concentration inhibiting L1210 cell growth in culture; assay type: functional, cell-based; details: Mus musculus
[2] = molecular target: T1, Dihydrofolate reductase (Mus musculus, UniProt P00375); experiment: Concentration inhibiting dihydrofolate reductase derived from L1210 cells; assay type: cell-based
T1 sequence (P00375 whole entry): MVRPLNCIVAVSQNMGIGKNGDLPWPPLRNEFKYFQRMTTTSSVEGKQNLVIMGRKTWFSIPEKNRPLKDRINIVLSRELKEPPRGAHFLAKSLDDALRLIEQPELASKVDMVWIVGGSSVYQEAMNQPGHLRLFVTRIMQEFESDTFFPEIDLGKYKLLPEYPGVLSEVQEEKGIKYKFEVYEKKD

[3] = molecular target: reduced folate carrier (Mus musculus); experiment: Binding affinity towards Dihydrofolate reductase derived from L1210 cells using [3H]- MTX as the radioligand
[4] = molecular target: T2, Thymidylate synthase (Lactobacillus casei, UniProt P00469); experiment: Concentration inhibiting thymidylate synthase enzyme of Lactobacillus casei; set-up: species or system Lacticaseibacillus casei
T2 sequence (P00469 whole entry): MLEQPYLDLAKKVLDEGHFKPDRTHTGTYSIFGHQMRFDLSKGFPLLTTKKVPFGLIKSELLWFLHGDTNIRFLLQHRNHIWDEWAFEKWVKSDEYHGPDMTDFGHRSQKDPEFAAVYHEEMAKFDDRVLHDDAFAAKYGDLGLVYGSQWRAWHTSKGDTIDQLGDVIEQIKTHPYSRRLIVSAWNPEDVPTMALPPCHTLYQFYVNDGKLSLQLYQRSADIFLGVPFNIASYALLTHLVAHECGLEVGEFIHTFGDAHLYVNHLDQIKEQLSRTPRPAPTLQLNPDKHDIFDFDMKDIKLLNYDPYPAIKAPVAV

[5] = molecular target: T1, Dihydrofolate reductase; experiment: Concentration inhibiting Dihydrofolate reductase derived from L1210 cells; assay type: cell-based
[6] = Concentration inhibiting Glycinamide ribotide formyltransferase of Lactobacillus casei; set-up: species or system Lacticaseibacillus casei
[7] = molecular target: T3, Dihydrofolate reductase (Homo sapiens, UniProt P00374); experiment: Inhibitory activity towards dihydrofolate reductase derived from human manca leukemia cells
T3 sequence (P00374 whole entry): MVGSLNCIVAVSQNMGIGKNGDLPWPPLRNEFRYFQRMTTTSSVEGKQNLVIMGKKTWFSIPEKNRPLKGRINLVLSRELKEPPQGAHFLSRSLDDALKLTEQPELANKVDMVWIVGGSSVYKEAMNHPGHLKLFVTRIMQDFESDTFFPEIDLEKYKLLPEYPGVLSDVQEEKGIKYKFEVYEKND

Compound | pIC50 [1] | pIC50 [4] | further results
Nc1nc(N)c2nc(CCc3ccc(C(=O)N[C@@H](CCC(=O)O)C(=O)O)cc3)cnc2n1 | 8.82 |  | pKi [2]: 11.47; pKi [3]: 5.92
CCC(Cc1ccc(C(=O)NC(CCC(=O)O)C(=O)O)cc1)c1cnc2nc(N)nc(N)c2n1 (configuration not stated) | 8.33 | < 4.00 | pKi [5]: 11.26; pIC50 [6]: < 4.30
CC(Cc1ccc(C(=O)NC(CCC(=O)O)C(=O)O)cc1)c1cnc2nc(N)nc(N)c2n1 (configuration not stated) | 9.62 | < 4.00 | pIC50 [7]: 7.40
CCC(Cc1cnc2nc(N)nc(N)c2n1)c1ccc(C(=O)N[C@@H](CCC(=O)O)C(=O)O)cc1 (some centres not stated) [EDATREXATE] | 9.19 |  | 
CN(Cc1cnc2nc(N)nc(N)c2n1)c1ccc(C(=O)N[C@@H](CCC(=O)O)C(=O)O)cc1 [METHOTREXATE] | 8.30 |  | 
